Experimental data published in the NIST ThermoML archive (doi:10.1016/j.jct.2013.09.024).
Numbers after ± are expanded uncertainties.

Key:
[1] = xn = mol fraction of the nth substance listed; details: Liquid, Vibrating tube method, x2 = 0
[2] = Liquid, Vibrating tube method

CCO [ethanol] + CC1(C)C(=O)[C@]2(C)CC[C@H]1C2
mass density [kg/m3], [1]
Details	101 kPa	20000 kPa	25000 kPa	30000 kPa	35000 kPa	40000 kPa
283.15 K	797.99 ± 0.13	813.3 ± 1	816.8 ± 1	820.2 ± 1	823.4 ± 1.1	826.6 ± 1.1
298.15 K	785.2 ± 0.13	801.7 ± 1	805.4 ± 1	809 ± 1.1	812.5 ± 1.1	815.8 ± 1.1
313.15 K	772.15 ± 0.14	790.1 ± 1	794.1 ± 1	797.8 ± 1.1	801.5 ± 1.1	805 ± 1.1
328.15 K	758.71 ± 0.14	778.1 ± 1	782.4 ± 1.1	786.4 ± 1.1	790.3 ± 1.1	794.1 ± 1.1

CCO [ethanol]
mass density [kg/m3], [2]
Details	101 kPa	20000 kPa	25000 kPa	30000 kPa	35000 kPa	40000 kPa
283.15 K	797.99 ± 0.13	813.3 ± 1	816.8 ± 1	820.2 ± 1	823.4 ± 1.1	826.6 ± 1.1
298.15 K	785.2 ± 0.13	801.7 ± 1	805.4 ± 1	809 ± 1.1	812.5 ± 1.1	815.8 ± 1.1
313.15 K	772.15 ± 0.14	790.1 ± 1	794.1 ± 1	797.8 ± 1.1	801.5 ± 1.1	805 ± 1.1
328.15 K	758.71 ± 0.14	778.1 ± 1	782.4 ± 1.1	786.4 ± 1.1	790.3 ± 1.1	794.1 ± 1.1

CC1(C)C(=O)[C@]2(C)CC[C@H]1C2 [(-)-fenchone]
mass density [kg/m3], [2]
Details	101 kPa	20000 kPa	25000 kPa	30000 kPa	35000 kPa	40000 kPa
283.15 K	953.27 ± 0.12	965.6 ± 1	968.5 ± 1	971.3 ± 1	974 ± 1	976.6 ± 1
298.15 K	940.67 ± 0.12	954 ± 1	957.1 ± 1	960 ± 1	962.9 ± 1	965.7 ± 1
313.15 K	928.04 ± 0.12	942.3 ± 1	945.6 ± 1	948.7 ± 1	951.8 ± 1	954.7 ± 1
328.15 K	915.39 ± 0.13	930.8 ± 1	934.2 ± 1	937.6 ± 1	940.9 ± 1	944 ± 1
